Laboratory results as given in patent US9884850B2, “Pyrimidine hydroxy amide compounds as HDAC6 selective inhibitors” (Acetylon Pharmaceuticals, Inc., priority 2014, dated 2018).
“Also recorded” adds a separate entry of the source.

System: taxol induced neuropathic pain model in rats
Assay: Taxol induced neuropathic pain study in rats (Von Frey testing)
Assay type: in vivo, rat
Conditions: taxol treated rats, 1, 3, 10 mg/kg PO b.i.d.
Experimental: This study included a histology endpoint in addition to the von Frey testing for paw sensitivity.
Neuropathic pain is induced by a 0.5 ml/kg injection of Taxol (2 mg/kg) administered IP on days 0-12. The development of neuropathic pain is confirmed by measuring mechanical allodynia (Von Frey test) on study day 13.
Allodynic response to tactile stimulation is assessed using the Von Frey apparatus (Touch Test®).
The rat will be placed in an enclosure and positioned on a metal mesh surface, but allowed to move freely. The rats' cabins are covered with red cellophane to diminish environmental disturbances. The test begins after a cessation of exploratory behavior. The set of Von Frey monofilaments provide an approximate logarithmic scale of actual force and a linear scale of perceived intensity.
The operating principle: when the tip of a fiber of given length and diameter is pressed against the skin at right angles, the force of application increases as long as the researcher continues to advance the probe until the fiber bends. After the fiber bends, the probe continues to advance, causing the fiber to bend more, but without additional force being applied. […] The Touch Test™ Sensory Evaluator can be used on the plantar surfaces of the rat's foot. The animal indicates sensation by pulling back its paw. […]

O=C(NO)c1cnc(NC2(c3ccccc3)CCC(F)(F)CC2)nc1 [Compound 003]
Effect on nociception / tactile allodynia (Von Frey): completely reversed nociception; also recorded: reduced tactile allodynia
